Measurements published in patent publication US10501741B2, “Methods and compositions for inhibiting growth and epithelial to mesenchymal transition (EMT) in cancer cells” (Cold Spring Harbor Laboratory, priority 2014, dated 2019).
“Also recorded” adds a separate entry of the source.

Legend:
[1] = system: E-cadherin; experiment: E-cadherin mRNA upon H2O2 treatment (SYBR-green real-time RT-PCR); assay type: cell-based
Description: (§1) FIG. 7A presents Western blot analysis of A549 cells ectopically expressing p53Ψ upon transfection with two independent siRNA targeting cyclophilin D (CypD). […] Data represent expression levels compared to actin (mean±SD, n=6; p<0.0001, Student's t-test) as measured by SYBR-green-based real-time RT-PCR. […] Cell motility was measured in a standard wound healing experiment. […] Each bar represents the average of four individual wounds. […] Data represent relative expression compared to the vector control (mean±SD, n=6; p<0.0001, Student's t-test). […] Cells were treated for 5 days with 10 mM NAC. FIG. 7F presents a schematic of a proposed mechanism of the p53Ψ-induced EMT. Upon acute oxidative stress, p53FL was previously shown to interact with CypD and trigger necrotic cell death by opening mPTP pore (left panel).
(§2) To determine whether CypD and ROS have a causative role in EMT mediated by p53Ψ, CypD and ROS levels were modulated in cells ectopically expressing p53Ψ (A549, MCF7, H1299) and their effects on expression of EMT markers and cell invasion were assessed.

[2] = system: A549 cells ectopically expressing p53Ψ; experiment: E-cadherin expression with ROS scavengers; assay type: cell-based, human; settings: 10 mM NAC or 500 μM Tempol for 5 days
Description: as §1
Data shown represent relative expression compared to ectopic expression of a vector control (mean±SD, n=6; p<0.0001, Student's t-test). […] After 5 days, the invasive potential of cells was determined using a standard Matrigel invasion assay. Filter chambers were coated with 40 μl Matrigel and invasion was assessed after 30 hours.
as §2

[3] = system: A549 cells ectopically expressing p53Ψ; experiment: Matrigel invasion assay; assay type: cell-based, human; settings: NAC 10 mM, 5 days, invasion assessed after 30 hours
Description: (§3) Data shown represent relative expression compared to ectopic expression of a vector control (mean±SD, n=6; p<0.0001, Student's t-test). […] Cells were also treated with 10 mM NAC for 5 days. The cell extracts were probed for E-cadherin, p53, CypD, and as a control GAPDH. […] Cells were treated with 10 mM NAC or 500 μM Tempol for 5 days, then extracts were probed for E-cadherin, p53 and GAPDH as indicated. […] Cells were grown in the presence or absence of NAC (10 mM). After 5 days, the invasive potential of cells was determined using a standard Matrigel invasion assay. Filter chambers were coated with 40 μl Matrigel and invasion was assessed after 30 hours.
as §2

[4] = system: A549 cells expressing p53Ψ; experiment: epistasis experiment: CypD silencing and NAC, E-cadherin Western blot; assay type: cell-based, human
Description: as §3
To exclude the possibility that ROS-induced EMT was independent of CypD in p53Ψ-expressing cells, epistasis experiments were performed. Specifically, E-cadherin expression was measured upon manipulation of ROS levels (e.g. by NAC treatment) in cells ectopically expressing p53Ψ in the presence and absence of CypD (FIG. 13B). If CypD and p53Ψ act on parallel pathways, an additive effect of CypD silencing and ROS inhibition would be predicted. In contrast, if p53Ψ acts solely through CypD, then CypD silencing would be sufficient to reduce ROS levels and no additive effect would be observed. […] This in turn is necessary and sufficient for p53Ψ-induced EMT (FIG. 7F, right panel).

[5] = system: mitochondrial permeability transition pore (mPTP) in A549 cells expressing p53Ψ; experiment: calcein AM assay of mPTP permeability; assay type: cell-based, human; settings: ionomycin 50 nM, control; all experimental settings
Description: In this assay, cells are loaded with Calcein (acetomethylester) together with its quencher Cobalt ions. Calcein freely diffuses throughout the cell including into the mitochondrial matrix. But the Cobalt quencher cannot diffuse across the inner mitochondrial membrane, therefore quenching Calcein fluorescence everywhere except in the mitochondrial matrix. Thus, Calcein fluorescence comes only from the matrix. Only upon PTP opening will Cobalt ions gain access to the matrix and quench Calcein, resulting in a sharp drop of mitochondrial fluorescence, which can be measured by FACS or microscopy (FIG. 6B).

[6] = system: cells ectopically expressing p53Ψ (A549, MCF7, H1299); experiment: EMT induction by p53Ψ upon modulation of CypD; assay type: cell-based, human
Description: as §2

[7] = system: A549 cells expressing p53Ψ; experiment: MitoSOX staining of mitochondrial superoxide; assay type: cell-based, human; settings: MitoSOX 1 μM
Description: FIG. 6A presents Western blot analysis of mitochondrial fractions of A549 cells ectopically expressing p53Ψ. The fractions were immunoprecipitated with a CypD-specific antibody and probed with a p53 N-terminal antibody, or CypD and Smurf1 antibodies as controls. […] FIG. 6B depicts a schematic of the calcein AM assay. […] The fluorescence was detected by laser confocal microscopy after 15 minutes. Non-mitochondrial calcein fluorescence was quenched by co-treatment with CoCl2. Treatment with the ionophore ionomycin (50 nM) was used as a control. […] FIG. 6D presents the % decrease in calcein fluorescence upon quenching of cytosolic calcein with CoCl2 in three independent experiments. The median calcein fluorescence was assessed by FACS. Calcein was loaded at 10 nM and detected after 15 minutes at 515 nm upon excitation with Red HeNe at 495 nm. Treatment with ionomycin was used as a control to estimate basal fluorescence. FIG. 6E presents representative fluorescence microscopy images of A549 cells loaded with MitoSOX (1 μM). Images show the fluorescence upon excitation at 390 nm, mainly from the hydroxyethidium derivative. DAPI was used as a counterstain. FIG. 6F presents the quantification of the MitoSox-positive fractions in three independent FACS experiments from FIG. 6E. […]

[8] = system: H1299 cells ectopically expressing p53Ψ; experiment: qRT-PCR of EMT markers in H1299 cells; assay type: cell-based, human; settings: 2 mM CsA for 5 days
[9] = system: MCF7 cells ectopically expressing p53Ψ; experiment: real-time PCR of EMT markers in MCF7 cells; assay type: cell-based, human; settings: CsA 2 mM for 5 days
[10] = system: A549 cells ectopically expressing p53Ψ; experiment: wound healing (cell motility) assay; assay type: cell-based, human; settings: 2 mM CsA for 5 days, closure at 48 hours
Description: as §1, §2

[11] = system: HOP62 cells; experiment: p53Ψ silencing in HOP62 cells (morphology, qRT-PCR of EMT markers); assay type: cell-based, human
Excerpt: Representative micrographs are presented showing cells 4 days after transfection with a mixture of two independent siRNA oligonucleotides targeting p53. […] No difference in Snail expression was observed. Data shown represent relative expression levels compared to actin (mean±SD, n=6; p<0.0001, Student's t-test) as measured by SYBR-green-based real-time RT-PCR. […] Level of expression of p53FL and p53Ψ in MCF7 are provided in FIGS. 11B and 10E, respectively. FIG. 4D presents qRT-PCR analysis of the canonical EMT markers E-cadherin (ECAD) and vimentin (VIM) as well as the EMT master regulators Snail, Slug, Twist, and Zeb1, in H1299 cells ectopically expressing p53Ψ or p53FL. Data shown represent relative expression levels compared to actin (mean±SD, n=6; p<0.0001, Student's t-test) as measured by SYBR-green-based real-time RT-PCR. FIG. 4E depicts the percent wound closure at the indicated time points in a 2D monolayer of A549 cells expressing p53Ψ, p53FL, or vector control. […] Filter chambers were coated with 40 μl Matrigel, and invasion was assessed after 30 hours. TGF-β treated cells were used as a positive control.
Somatic alterations of the p53 tumor suppressor gene located on chromosome 17p often occur in cancers and are associated with poor prognosis. In these tumors, p53 mutations disable p53-mediated inhibition of proliferation and promotion of apoptosis in response to stress. In addition, missense p53 mutations may have gain-of-function activities that lead to an increased metastatic spread. […] To test this hypothesis p53Ψ expression was silenced in HOP62 cells. These mesenchymal cells are homozygous for the c.673−2A to G mutation and inherently express exclusively a p53Ψ-like isoform (FIG. 2I and FIG. 9O). […] Cells in which p53Ψ expression was silenced lost the elongated appearance typical of mesenchymal-like cells and instead acquired a cobblestone morphology characteristic of epithelial cells (FIG. 4A).

Compound: OO [H2O2]
- cell viability ([1]; low doses of H2O2): without compromising cell viability
- expression of E-cadherin ([1]; low doses of H2O2 for 5 days): decreased the expression of E-cadherin

Compound: CC(=O)N[C@@H](CS)C(=O)O [NAC, N-acetyl cysteine]
- expression of E-cadherin [2]: augmented expression of E-cadherin
- invasive capabilities (Matrigel invasion) [3]: decreased invasive capabilities; also recorded: sufficient to decrease the invasion capabilities
- E-cadherin expression in cells in which CypD was silenced ([4]; CypD siRNA, 10 mM NAC for 5 days): did not increase E-cadherin expression

Compound: CC1(C)CC(O)CC(C)(C)N1[O] [Tempol]
- expression of E-cadherin [2]: augmented expression of E-cadherin
- invasive capabilities (Matrigel invasion) [3]: decreased invasive capabilities

Compound: C[C@H](CCC(=O)O)C[C@H](C)C[C@H](C)C(=O)/C=C(\O)[C@H](C)C[C@H](C)C/C=C/[C@@H](C)[C@@H](O)[C@@H](C)[C@@H](O)C[C@@H]1CC[C@@](C)([C@H]2CC[C@@](C)([C@@H](C)O)O2)O1 [ionomycin]
- mitochondria calcein fluorescence [5]: rapid loss of mitochondria calcein fluorescence

Compound: CypD siRNA: siRNA AGGCAGATGTCGTCCCAAA (SEQ ID NO:10); CGACTTCACCAACCACAAT (SEQ ID NO:11), from Invitrogen (listed as DNA, chemistry not given here)
- EMT in cells expressing p53Ψ [6]: sufficient to prevent EMT
- p53Ψ-induced EMT ([4]; CypD silenced): blocked p53Ψ-induced EMT

Compound: cyclosporin A [CsA]
- MitoSOX fluorescence (mitochondrial superoxide) [7]: decreased
- EMT in cells expressing p53Ψ [6]: sufficient to prevent EMT
- expression of E-cadherin (qRT-PCR) [8]: restore expression of E-cadherin to a level similar to that observed in control cells
- expression of EMT markers (qRT-PCR) [8]: reduce expression of EMT markers
- expression of E-cadherin (real-time PCR) [9]: restore expression of E-cadherin to levels similar to parental cells
- expression of EMT markers (real-time PCR) [9]: reduce expression of EMT markers
- cell motility (wound healing) [10]: diminish cell motility

Compound: p53 siRNA: siRNA GGGTTAGTTTACAATCAGC (SEQ ID NO:5); GGTGAACCTTAGTACCTAA (SEQ ID NO:6), from Invitrogen (listed as DNA, chemistry not given here)
- cell morphology ([11]; 4 days after transfection with two siRNA targeting p53): loss of mesenchymal-like features and the acquisition of an epithelial morphology
- Snail expression ([11]; p53 siRNA): No difference
- expression of E-cadherin ([11]; p53Ψ knockdown): increased expression of E-cadherin
- expression of vimentin, Zeb1, Twist and Slug ([11]; p53Ψ knockdown): diminished expression
